Source: ChEMBL document CHEMBL3988442, “University of Dundee, Small-Polar-MMV Screening Library” (2021)

Legend:
[1] = microbe, parasite or virus in culture; details: Mycobacterium tuberculosis, 96 h, read-out: pIC50 (converted)
[2] = microbe, parasite or virus in culture; details: Mycobacterium tuberculosis, 72 h, read-out: pIC50 (converted)

| Compound | IC50 [1] | IC50 [2] |
| --- | --- | --- |
| CC(=O)c1c(C)[nH]c(C(=O)OCC(=O)N(C)C)c1C | 286 µM | 279 µM |
| CC(=O)c1c(F)cccc1N1CCOCC1 | > 501 µM | > 501 µM |
| CC(=O)N1CCC(C(=O)c2ccc(C)cc2)CC1 | > 501 µM | 100 µM |
| CSc1nnc(CN(C)CCO)s1 | 56.6 µM | > 501 µM |
| CCn1c(C(=O)N2CCOCC2C)cc2ccccc21 (configuration not stated) | 303 µM | 191 µM |
| CC1CCCN(CC(=O)Nc2ccccc2C(N)=O)C1 (configuration not stated) | > 501 µM | 248 µM |
| CC(C)Sc1nc(-c2ccccn2)no1 | 312 µM | 320 µM |
| CC1=CCN(C(=O)c2ccsc2)CC1 | > 501 µM | 160 µM |
| COC(=O)CNc1ccccc1 | 123 µM | 463 µM |
| CC(NC(=O)c1ccc(Cl)c(I)c1)C(=O)N(C)C (configuration not stated) | > 501 µM | > 501 µM |
| CCC(C(=O)N1CCC(N)CC1)c1ccccc1 (configuration not stated) | > 501 µM | 118 µM |
| Nc1ccc(CNc2ccc(C(F)(F)F)nn2)cn1 | > 501 µM | > 501 µM |
| COc1ccc(OC)c(NC(=O)c2ccccn2)c1 | 156 µM | 173 µM |
| CC(C)C(=O)N1CCC(C(=O)c2ccc(O)cc2)CC1 | > 501 µM | 5.6 µM |
| NC(=O)C(Sc1nncs1)c1ccc(Br)cc1 (configuration not stated) | 266 µM | 412 µM |
| CN1CCN(C(=O)c2cc3c(F)cccc3s2)CC1 | > 501 µM | 165 µM |
| CCNc1nnc(SCc2ncccc2C)s1 | 58 µM | 96.1 µM |
| COC(=O)C(O)CNc1ccc(C(F)(F)F)cn1 (configuration not stated) | > 501 µM | > 501 µM |
| CCCOC(=O)C(C)NC(=O)c1cccs1 (configuration not stated) | 287 µM | 249 µM |
| CCC(=O)c1ccc(CN)cc1 | 264 µM | > 501 µM |
| COCCCNC(=O)c1coc(Br)c1 | 116 µM | 118 µM |
| CCOc1ccc2cc(S(=O)(=O)NCCO)ccc2c1 | 9.01 µM | 5.84 µM |
| CN(CC(=O)Nc1sccc1C(N)=O)Cc1cccs1 | > 501 µM | 117 µM |

| Compound | IC50 [1] | IC50 [2] |
| --- | --- | --- |
| O=C(c1ccccn1)N1CCC2(CCCC2)CC1 | 160 µM | 245 µM |
| CCOc1cc(C(=O)NCCCOC(C)C)ccn1 | 137 µM | 87.9 µM |
| COc1cc(C(=O)NC(C)CC#N)ccc1C (configuration not stated) | 184 µM | 185 µM |
| Cc1cnn(CCNc2ccc(F)cn2)c1 | > 501 µM | 365 µM |
| CN(CCc1ccccc1)CCS(=O)(=O)CCC(N)=O | 175 µM | 442 µM |
| Cc1cccc(N2CCCC(N)C2)n1 (configuration not stated) | 150 µM | 119 µM |
| N[C@@H]1CCN(Cc2cc(F)cc(C(F)(F)F)c2)C[C@H]1O | > 501 µM | 266 µM |
| COCCN(C)CCNC(=O)c1ccc(Cl)cc1 | > 501 µM | 165 µM |
| CCc1nnsc1C(=O)N1CCc2sccc2C1 | > 501 µM | 176 µM |
| O=C(CNC(=O)c1cccs1)c1ccccc1 | > 501 µM | > 501 µM |
| O=C(Nc1nc(-c2ccsc2)ns1)C1CCCN1 (configuration not stated) | > 501 µM | > 501 µM |
| NCC(CO)Cc1ccsc1 (configuration not stated) | 176 µM | 122 µM |
| CCOc1cccc(CCN)n1 | > 501 µM | 234 µM |
| COC(=O)CNC(=O)c1ccc(C)c(-n2cccc2)c1 | > 501 µM | > 501 µM |
| O=C(NC1CCCc2ccccc21)c1ccncc1 (configuration not stated) | > 501 µM | 146 µM |
| NC(=O)C(N)c1ccc2c(c1)OCCO2 (configuration not stated) | > 501 µM | > 501 µM |
| Cc1cnn(CCNCc2nccn2C)c1 | 294 µM | 306 µM |
| Cc1cc(Br)oc1C(=O)Nc1ncccc1O | 157 µM | 322 µM |
| COCCCNC(=O)c1ccn(-c2ccc(F)cc2)n1 | 154 µM | 114 µM |
| Cc1cc(C)cc(OCCNC(=O)CSCC(N)=O)c1 | > 501 µM | 139 µM |
| CCc1noc(Cn2nc(C(F)(F)F)ccc2=O)n1 | 365 µM | 47.8 µM |
| CN(C)c1ccc(C(=O)N(C)C2(C#N)CCC2)cc1F | > 501 µM | > 501 µM |
| COC(=O)CSCC(=O)Nc1cc(F)cc(F)c1 | > 501 µM | 204 µM |

| Compound | IC50 [1] | IC50 [2] |
| --- | --- | --- |
| COCCC(=O)NCC(C)c1ccc(F)c(F)c1 (configuration not stated) | > 501 µM | > 501 µM |
| Cc1ccc(C2CCCN2CCS(C)(=O)=O)s1 (configuration not stated) | > 501 µM | 205 µM |
| COC(=O)c1snc(-c2ccccc2)c1N | 97 µM | 103 µM |
| COc1ccccc1C(C)NC(=O)Cn1cc(C)cn1 (configuration not stated) | > 501 µM | 226 µM |
| CCOc1ncc(C(=O)NCC(C)(O)C(C)C)cc1Cl (configuration not stated) | 141 µM | 59.9 µM |
| CC1c2ccsc2CCN1CCC(=O)NC(N)=O (configuration not stated) | 128 µM | 78.1 µM |
| O=C(CCN1CCN(c2ccccn2)CC1)NC1CC1 | > 501 µM | > 501 µM |
| NC(=O)C(Sc1nnc[nH]1)c1ccc(Br)cc1 (configuration not stated) | > 501 µM | > 501 µM |
| CC(CNC(=O)Cn1cccn1)Sc1ccccc1 (configuration not stated) | 121 µM | 135 µM |
| CN(C)S(=O)(=O)NCCNc1ccc2ccccc2n1 | 326 µM | 419 µM |
| Cc1cc(NC(=O)CN(C)Cc2ccccc2)no1 | 243 µM | 266 µM |
| CC(C)C[C@H](N)C(=O)N(C)c1ccccc1 | 225 µM | 242 µM |
| CC(C)NS(=O)(=O)c1cc(CN)ccc1F | > 501 µM | > 501 µM |
| COc1cccc(CN2CCC3(CC2)OCC(C)O3)c1 (configuration not stated) | 244 µM | 394 µM |
| CC(=O)c1ccc(S(C)(=O)=O)c(N2CCC(C)(C)C2)c1 | > 501 µM | > 501 µM |
| O=C(NCc1cccs1)c1cnccn1 | 80.5 µM | 33.9 µM |
| CCC(N)c1ccccc1OC (configuration not stated) | > 501 µM | 267 µM |
| CCc1nc(CCN)cs1 | 152 µM | 113 µM |
| CC(C)c1cccc(S(=O)(=O)NCCN)c1 | > 501 µM | 219 µM |
| Cc1cccc(C[S+]([O-])CC(=O)NCC2CC2)c1 (configuration not stated) | > 501 µM | > 501 µM |
| COCCOc1ccc(NC(=O)OCC(F)(F)F)cn1 | 110 µM | 208 µM |
| Cc1csc(CCN)n1 | > 501 µM | > 501 µM |
| NCCc1ccc(OCC(F)(F)F)nc1 | 211 µM | 111 µM |

| Compound | IC50 [1] | IC50 [2] |
| --- | --- | --- |
| CC(C)(C)OC(=O)N1CCN(c2ccnc(N)c2)CC1 | > 501 µM | > 501 µM |
| Cc1ccc(OC(C)CN)cc1 (configuration not stated) | 166 µM | 77 µM |
| Cc1cc(N2CCC2c2ccccc2)n2ncnc2n1 (configuration not stated) | 245 µM | 162 µM |
| COc1cccc(S(=O)(=O)CCN2CCC(O)CC2)c1 | > 501 µM | 397 µM |
| O=C(c1cnsn1)N1CCN(Cc2ccc(Cl)s2)CC1 | 71 µM | 45.6 µM |
| CCCNC(=O)c1ccc(C(=O)OC)cc1 | > 501 µM | 120 µM |
| CNC(=O)COC(=O)Cc1ccc(Br)cc1 | > 501 µM | > 501 µM |
| NC(=O)c1cnc(NC2CCc3ccccc32)c(Cl)c1 (configuration not stated) | 196 µM | 199 µM |
| COCc1ccc(SCC(=O)N(C)C)cc1 | > 501 µM | > 501 µM |
| CCC1Oc2c(Cl)cccc2NC1=O (configuration not stated) | > 501 µM | > 501 µM |
| NCC1CCCN(c2ncccn2)C1 (configuration not stated) | > 501 µM | 288 µM |
| O=C(NCc1ccc(Br)o1)[C@@H]1CCCO1 | > 501 µM | 242 µM |
| CCNC(=O)c1cc(N2CCCC(C)CC2)ccn1 (configuration not stated) | 237 µM | 143 µM |
| CCN1CCN(Cc2cc(C(C)=O)ccc2OC)CC1 | > 501 µM | 367 µM |
| N#Cc1cccc(C(=O)OCCCn2cccn2)c1 | > 501 µM | > 501 µM |
| N#CC1(NC(=O)CCc2ccc(Cl)s2)CCOCC1 | > 501 µM | 236 µM |
| CC(C)(N)C(O)c1ccc(Br)cc1 (configuration not stated) | > 501 µM | 126 µM |
| NC1CCCc2occc21 (configuration not stated) | 245 µM | 142 µM |
| CC(C)c1ccc(C(N)CNS(C)(=O)=O)cc1 (configuration not stated) | 268 µM | 202 µM |
| Cc1noc(CSc2ccc(C(=O)N3CCC3)cc2)n1 | > 501 µM | > 501 µM |
| OCCCC(Nc1ccccn1)c1ccccc1 (configuration not stated) | 111 µM | 109 µM |
| CCn1ncnc1CN1CC(Oc2ccccc2)C1 | > 501 µM | 151 µM |
| O=C(CCNCCO)c1ccccc1 | > 501 µM | 137 µM |

| Compound | IC50 [1] | IC50 [2] |
| --- | --- | --- |
| Clc1cncc(NCC2CN(C3CC3)CCO2)n1 (configuration not stated) | 311 µM | 259 µM |
| O=S(=O)(CCNc1cncc(Cl)n1)N1CCSCC1 | 215 µM | 252 µM |
| c1ccc2c(N3CCNCC3)cncc2c1 | 290 µM | 460 µM |
| Cc1nn(CCN(C)c2ccccc2)c(N)c1C#N | > 501 µM | 265 µM |
| COc1cc(C(=O)NCC2CCC2)cc2c1OCCO2 | 321 µM | 245 µM |
| COc1cccc(C(=O)Nc2ccnn2C(C)C)c1 | > 501 µM | 259 µM |
| COc1c(CNCCS(C)(=O)=O)c(C(C)C)nn1C | > 501 µM | > 501 µM |
| OCCCNc1cccc(Cl)c1-n1cccn1 | > 501 µM | 183 µM |
| CNC(=O)C1CCN(C(=O)CCc2cccs2)CC1 | 111 µM | 38.8 µM |
| CC(C)C(C)(C#N)NC(=O)CNc1cccc(F)c1 (configuration not stated) | 292 µM | 307 µM |
| CCc1ccc(C(=O)NCc2ccccn2)o1 | 138 µM | 40.5 µM |
| CN(Cc1cc(Br)cs1)C(=O)CC1(N)CCC1 | > 501 µM | 158 µM |
| CC(=O)Nc1ccc(N2CCCCC2)nc1 | 95.3 µM | 97.2 µM |
| NCCCc1cccc(F)c1 | > 501 µM | 74 µM |
| COc1ccccc1CNc1ccc(C#N)cn1 | 279 µM | 194 µM |
| NCCOc1ccc2ccccc2n1 | > 501 µM | 244 µM |
| Cc1cc(C)cc(NC(=O)CNCCCO)c1 | > 501 µM | > 501 µM |
| COc1cc(C)c(S(=O)(=O)N2C[C@@H](O)[C@@H](O)C2)cc1C | > 501 µM | 229 µM |
| COc1ccc(C(=O)NCc2ncnn2C)cc1Br | > 501 µM | 326 µM |
